Measured values from patent US8557796B2, “Substituted 1-oxa-2,8-diaza-spiro [4,5] dec-2-ene derivatives and related treatment methods” (Gruenenthal GmbH, priority 2001, dated 2013).

Experiments:
5HT-uptake = target: T1, 5HT-uptake (Rattus norvegicus, UniProt P31652); assay: Serotonin uptake inhibition (5HT uptake) in synaptosomes; format: biochemical; settings: rat brain synaptosomes
T1 construct: synaptosomes from rat brain regions were freshly isolated; from tissue; host or cells: P2 synaptosome fraction from rat brain regions
Source text: Tests on Serotonin Uptake (5HT Uptake Inhibition)

NA transporter = target: T2, NA transporter (Rattus norvegicus, UniProt Q9WTR4); assay: Noradrenalin uptake inhibition (NA-uptake) in synaptosomes; format: biochemical; settings: rat hypothalamus synaptosomes
T2 construct: synaptosomes from rat brain regions were freshly isolated; from tissue; host or cells: P2 synaptosome fraction from hypothalamus of male rat brain
Source text: Tests on Noradrenalin Uptake Inhibition (NA-Uptake Inhibition)
In order to be able to carry out these in vitro studies, synaptosomes from rat brain regions were freshly isolated.

T1 sequence (P31652 whole entry): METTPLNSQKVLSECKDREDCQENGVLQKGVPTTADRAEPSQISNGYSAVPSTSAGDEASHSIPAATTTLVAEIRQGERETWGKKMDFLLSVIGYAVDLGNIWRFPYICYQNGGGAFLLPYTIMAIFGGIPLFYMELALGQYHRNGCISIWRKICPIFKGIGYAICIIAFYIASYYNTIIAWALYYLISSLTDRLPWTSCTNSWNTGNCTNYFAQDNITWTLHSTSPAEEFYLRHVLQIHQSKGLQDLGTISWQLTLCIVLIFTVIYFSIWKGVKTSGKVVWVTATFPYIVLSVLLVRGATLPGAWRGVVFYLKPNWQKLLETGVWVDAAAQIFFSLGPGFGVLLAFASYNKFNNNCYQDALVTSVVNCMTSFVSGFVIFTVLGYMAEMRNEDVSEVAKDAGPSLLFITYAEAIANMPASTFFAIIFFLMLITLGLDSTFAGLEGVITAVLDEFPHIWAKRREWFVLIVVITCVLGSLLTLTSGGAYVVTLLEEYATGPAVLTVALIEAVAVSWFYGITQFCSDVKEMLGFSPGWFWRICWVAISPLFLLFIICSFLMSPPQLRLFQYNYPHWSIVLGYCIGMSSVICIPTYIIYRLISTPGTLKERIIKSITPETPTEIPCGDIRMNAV
T2 sequence (Q9WTR4 1-597): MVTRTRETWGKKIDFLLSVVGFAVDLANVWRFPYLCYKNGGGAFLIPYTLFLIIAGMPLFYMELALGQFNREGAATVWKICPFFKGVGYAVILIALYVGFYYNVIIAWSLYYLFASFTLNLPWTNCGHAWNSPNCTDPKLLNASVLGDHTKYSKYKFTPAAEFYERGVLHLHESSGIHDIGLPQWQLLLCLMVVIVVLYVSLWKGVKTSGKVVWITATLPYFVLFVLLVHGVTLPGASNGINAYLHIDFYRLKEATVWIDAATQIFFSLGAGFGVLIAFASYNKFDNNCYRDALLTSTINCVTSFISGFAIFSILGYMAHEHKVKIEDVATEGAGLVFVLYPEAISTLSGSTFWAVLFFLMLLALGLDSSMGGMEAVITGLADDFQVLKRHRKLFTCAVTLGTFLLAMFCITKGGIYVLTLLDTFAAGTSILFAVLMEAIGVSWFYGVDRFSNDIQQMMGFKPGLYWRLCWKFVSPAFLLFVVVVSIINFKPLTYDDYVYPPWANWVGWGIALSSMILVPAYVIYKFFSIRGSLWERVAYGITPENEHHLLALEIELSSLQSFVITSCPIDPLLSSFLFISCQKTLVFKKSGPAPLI

SMILES | inhibition at 10 µM (5HT-uptake) [%] | inhibition at 10 µM (NA transporter) [%] | 5HT-uptake, 10 μM, % inhibition (5HT-uptake) [%] | NA-uptake, 10 μM, % inhibition (NA transporter) [%] | other results
Cc1cc(C(=O)N2CCC3(CC2)CC(C(=O)NCc2ccncc2)=NO3)ccc1Br [Example 130, 8-(4-bromo-3-methyl-benzoyl)-1-oxa-2,8-diaza-spiro[4,5]dec-2-ene-3-carboxylic acid (pyridin-4-ylmethyl)-amide] | 64 | 61 | – | – | –
O=C(C1=NOC2(CCN(S(=O)(=O)Cc3ccccc3)CC2)C1)N1CCN(CCCc2ccccc2)CC1 [Example 69] | – | – | 63 | 56 | –
Cc1ccc(F)cc1S(=O)(=O)N1CCC2(CC1)CC(C(=O)NCc1cccs1)=NO2 [Example 150, 8-(5-fluoro-2-methyl-benzenesulphonyl)-1-oxa-2,8-diaza-spiro[4,5]dec-2-ene-3-carboxylic acid (thiophen-2-ylmethyl)-amide] | 70 | 48 | – | – | –
Cc1ccc(S(=O)(=O)N2CCC3(CC2)CC(C(=O)NC2CCCC2OCc2ccccc2)=NO3)cc1 (stereo not shown) [Example 73, 8-(toluene-4-sulphonyl)-1-oxa-2,8-diaza-spiro[4,5]dec-2-ene-3-carboxylic acid (2-benzyloxy-cyclopentyl)-amide] | – | – | – | – | 5HT-uptake, 10 μM, % inhibition (5HT-uptake; 10 µM): 46%; NA-uptake, 10 μM, % inhibition (NA transporter; 10 µM): 93%
CC(NC(=O)C1=NOC2(CCN(S(=O)(=O)c3cccs3)CC2)C1)c1cccc2c1OCCO2 (stereo not shown) [Example 84, 8-(thiophene-2-sulphonyl)-1-oxa-2,8-diaza-spiro[4,5]dec-2-ene-3-carboxylic acid [1-(2,3-dihydro-benzo[1,4]dioxin-5-yl)-ethyl]-amide] | 68 | 67 | – | – | –
Cc1cccc(N2CCN(C(=O)C3=NOC4(CCN(S(=O)(=O)c5cccs5)CC4)C3)CC2C)c1 (stereo not drawn) [Example 31, (3-methyl-4-m-tolyl-piperazin-l-yl)-[8-(thiophene-2-sulphonyl)-1-oxa-2,8-diaza-spiro[4,5]dec-2-en-3-yl]-methanone] | – | – | 69 | 66 | –
COc1ccc(S(=O)(=O)N2CCC3(CC2)CC(C(=O)NC(C)Cc2ccc(Cl)cc2)=NO3)cc1 (stereo not shown) [Example 164, 8-(4-methoxy-benzenesulphonyl)-1-oxa-2,8-diaza-spiro[4,5]dec-2-ene-3-carboxylic acid [2-(4-chloro-phenyl)-1-methyl-ethyl]-amide] | 54 | 80 | – | – | –
COc1cccc(CN2CCC(NC(=O)C3=NOC4(CCN(S(=O)(=O)c5cc(Cl)ccc5Cl)CC4)C3)C2)c1 (stereo not shown) [Example 64] | – | – | 61 | 61 | –
O=C(NCCc1ccc(Cl)c(Cl)c1)C1=NOC2(CCN(S(=O)(=O)c3ccc(OC(F)(F)F)cc3)CC2)C1 [Example 165] | – | – | 41 | 55 | –
Cc1ccc(S(=O)(=O)N2CCC3(CC2)CC(C(=O)NC2CCCC2OCc2ccccc2)=NO3)cc1 (stereo not shown) [Example 67, 8-(toluene-4-sulphonyl)-1-oxa-2,8-diaza-spiro[4,5]dec-2-ene-3-carboxylic acid (2-benzyloxy-cyclopentyl)-amide] | 58 | – | – | – | NA-uptake, 10 μM, % inhibition (NA transporter; 10 µM): 59%
CC(NC(=O)C1=NOC2(CCN(S(=O)(=O)c3cc(Cl)ccc3Cl)CC2)C1)C(=O)Nc1ccc2ccccc2c1 (stereo not shown) [Example 44, 8-(2,5-dichloro-benzenesulphonyl)-1-oxa-2,8-diaza-spiro[4,5]dec-2-ene-3-carboxylic acid [1-(naphthalen-2-ylcarbamoyl)-ethyl]amide] | 80 | 48 | – | – | –
O=C(C1=NOC2(CCN(S(=O)(=O)c3cccs3)CC2)C1)N1CCN(CCCc2ccccc2)CC1 [Example 14, [4-(3-phenyl-propyl)-piperazin-l-yl]-[8-(thiophene-2-sulphonyl)-1-oxa-2,8-diaza-spiro[4,5]dec-2-en-3-yl]-methanone] | – | – | 78 | 70 | –
CCOC(=O)CCNC(=O)C1=NOC2(CCN(C(=O)c3cc(F)cc(F)c3)CC2)C1 [Example 81, 3-{[8-(3,5-difluoro-benzoyl)-1-oxa-2,8-diaza-spiro[4,5]dec-2-ene-3-carbonyl]-amino}-propionic acid ethyl ester] | 46 | – | – | – | –
